This is an account of results in ChEMBL document CHEMBL4118212, “Structure-activity relationship of uridine-based nucleoside phosphoramidate prodrugs for inhibition of dengue virus RNA-dependent RNA polymerase” (Bioorg Med Chem Lett, 2018).

The target in data set [1] is POLRMT (DNA-directed RNA polymerase, mitochondrial) (Homo sapiens, UniProt O00411). As to the kind of experiment: Inhibition of human POLRMT using 5'-FAM labelled RNA primer/DNA template duplex assessed as single nucleotide incorporation rate at 500 uM after 5 mins by SDS-PAGE analysis relative to control. Set-up: scale not given: the % may be the effect or the level left. Particulars: probe 5'-FAM labelled RNA primer/DNA template duplex, read-out: Activity.
Chain of POLRMT (DNA-directed RNA polymerase, mitochondrial) (O00411 whole entry): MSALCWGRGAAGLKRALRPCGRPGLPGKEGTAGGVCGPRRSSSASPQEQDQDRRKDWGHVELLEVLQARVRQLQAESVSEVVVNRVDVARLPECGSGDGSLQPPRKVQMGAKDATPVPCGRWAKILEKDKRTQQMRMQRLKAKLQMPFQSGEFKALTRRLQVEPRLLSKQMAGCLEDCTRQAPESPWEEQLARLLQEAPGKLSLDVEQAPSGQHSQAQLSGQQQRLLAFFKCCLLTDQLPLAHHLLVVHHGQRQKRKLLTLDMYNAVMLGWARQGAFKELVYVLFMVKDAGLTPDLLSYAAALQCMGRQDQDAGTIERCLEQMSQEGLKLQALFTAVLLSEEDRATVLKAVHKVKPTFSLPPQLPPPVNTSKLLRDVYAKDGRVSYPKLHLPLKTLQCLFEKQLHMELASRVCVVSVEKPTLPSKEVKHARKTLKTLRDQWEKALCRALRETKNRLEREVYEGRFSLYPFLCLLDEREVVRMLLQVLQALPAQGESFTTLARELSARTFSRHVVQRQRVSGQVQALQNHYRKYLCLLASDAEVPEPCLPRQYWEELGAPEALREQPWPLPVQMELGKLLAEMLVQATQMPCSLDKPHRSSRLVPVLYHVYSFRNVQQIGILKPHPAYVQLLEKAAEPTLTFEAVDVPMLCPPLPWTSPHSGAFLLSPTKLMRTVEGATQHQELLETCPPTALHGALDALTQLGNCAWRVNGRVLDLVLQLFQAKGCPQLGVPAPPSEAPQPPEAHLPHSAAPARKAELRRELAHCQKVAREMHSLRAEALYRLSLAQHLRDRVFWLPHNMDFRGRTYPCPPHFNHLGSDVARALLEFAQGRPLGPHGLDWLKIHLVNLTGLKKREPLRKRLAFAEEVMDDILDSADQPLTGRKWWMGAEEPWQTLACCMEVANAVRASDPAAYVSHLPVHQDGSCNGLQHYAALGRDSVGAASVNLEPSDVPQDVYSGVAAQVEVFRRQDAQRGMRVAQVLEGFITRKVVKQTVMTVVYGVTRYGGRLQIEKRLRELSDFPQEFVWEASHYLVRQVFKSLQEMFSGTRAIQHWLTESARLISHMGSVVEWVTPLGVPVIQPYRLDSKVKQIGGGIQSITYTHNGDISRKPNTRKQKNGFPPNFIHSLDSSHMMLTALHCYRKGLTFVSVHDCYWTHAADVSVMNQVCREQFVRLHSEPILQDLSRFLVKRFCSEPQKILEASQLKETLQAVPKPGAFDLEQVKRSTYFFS

Data set [2] in a line: Inhibition of recombinant human mitochondrial DNA polymerase gamma expressed in Escherichia coli BL21(DE3) cells assessed as single nucleotide incorporation rate at 100 uM relative to NTP. Set-up: scale not given: the % may be the effect or the level left.
Data set [3] addresses Nonstructural protein 5 (Dengue virus, UniProt V5TFZ2). As to the kind of experiment: Inhibition of Dengue virus RdRp activity using 5'-(TCAG)20(TCCAAG)14(TCAG)20-3' as template measured after 120 mins.
Data set [4] can be described thus: Cytotoxicity against human HepG2 cells after 96 hrs by CCK-8 assay. Type of data set: cell-based. In general terms: Tetrazolium assays rely on reduction of a dye to a coloured formazan, in cell work by metabolically active cells.
Data set [5] deals with dengue virus type 2. As to the kind of experiment: Antiviral activity against Dengue virus 2 infected in human HuH7 cells by replicon assay. To be noted: Huh-7. It is filed as functional, organism-based. A general note: In antiviral work, replicon cells carry a viral genome segment that copies itself.
Data set [6] can be described thus: Cytotoxicity against human MT4 cells. It is filed as cell-based.
Data set [7] concerns dengue virus type 2. As to the kind of experiment: Antiviral activity against Dengue virus 2 infected in human PBMC after 2 days post infection by plaque assay. Particulars: 48 h. Type of data set: functional, organism-based.
Data set [8] is described as follows: Cytotoxicity against human K562 cells. Type of data set: cell-based.
The nature of data set [9]: Mitochondrial toxicity in human PC3 cells assessed as effect on mitochondrial protein synthesis measured after 5 days by ELISA. Type of data set: cell-based, PC-3. (In general: An ELISA detects its analyte on a solid surface through an enzyme-linked reagent.)
Data set [10] has as its system dengue virus type 2. Kind of data set: Antiviral activity against Dengue virus 2 infected in human PBMC after 24 hrs post infection by plaque assay. It is filed as functional, organism-based.
The target in data set [11] is DNA-directed RNA polymerase, mitochondrial (Homo sapiens, UniProt O00411). As to the kind of experiment: Inhibition of human full length POLRMT using 32P-RNA primer/DNA template assessed as single nucleotide incorporation rate at 500 uM by SDS-PAGE analysis relative to CTP. Set-up: scale not given: the % may be the effect or the level left.
Chain of DNA-directed RNA polymerase, mitochondrial (O00411 whole entry): as above

Where only a bound is given, the exact number is not on record here.

Chain of Nonstructural protein 5 (V5TFZ2 whole entry): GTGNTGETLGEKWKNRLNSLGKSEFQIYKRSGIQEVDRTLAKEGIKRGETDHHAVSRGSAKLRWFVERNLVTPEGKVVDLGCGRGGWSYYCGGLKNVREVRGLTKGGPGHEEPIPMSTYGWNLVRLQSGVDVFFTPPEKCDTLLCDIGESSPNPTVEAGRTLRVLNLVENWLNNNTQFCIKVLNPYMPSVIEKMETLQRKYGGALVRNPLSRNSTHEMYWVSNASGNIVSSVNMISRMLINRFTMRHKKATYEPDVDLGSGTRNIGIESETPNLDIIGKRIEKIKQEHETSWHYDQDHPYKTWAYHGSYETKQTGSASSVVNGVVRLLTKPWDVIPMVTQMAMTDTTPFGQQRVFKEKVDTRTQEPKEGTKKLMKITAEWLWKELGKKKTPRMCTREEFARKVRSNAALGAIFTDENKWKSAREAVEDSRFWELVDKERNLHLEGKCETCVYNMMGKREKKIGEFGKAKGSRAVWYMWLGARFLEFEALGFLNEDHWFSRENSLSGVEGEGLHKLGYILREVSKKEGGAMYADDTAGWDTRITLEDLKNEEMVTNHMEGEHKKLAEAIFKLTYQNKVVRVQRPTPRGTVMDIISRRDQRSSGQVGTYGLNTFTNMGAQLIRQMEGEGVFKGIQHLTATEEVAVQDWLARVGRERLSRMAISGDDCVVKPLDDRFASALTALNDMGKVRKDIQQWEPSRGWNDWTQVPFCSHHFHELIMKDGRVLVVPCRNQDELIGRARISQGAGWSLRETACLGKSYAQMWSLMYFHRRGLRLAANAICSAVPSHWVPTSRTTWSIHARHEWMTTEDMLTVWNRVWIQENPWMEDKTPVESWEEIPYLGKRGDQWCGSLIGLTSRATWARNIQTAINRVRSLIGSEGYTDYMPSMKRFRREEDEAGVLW

On to `C#C[C@]1(O)[C@H](n2ccc(=O)[nH]c2=O)O[C@](F)(COP(=O)(O)OP(=O)(O)OP(=O)(O)O)[C@H]1O`, for which the activity at 5 min, 500 µM in data set [1] is 3%. In data set [2], the Activity amounted to 0%. The molecule further had an IC50 in [3] of 0.65 µM.
Take `CC#C[C@@]1(F)[C@H](O)[C@@H](CO[P@@](=O)(N[C@@H](C)C(=O)OC(C)C)Oc2ccccc2)O[C@H]1n1ccc(=O)[nH]c1=O`: in data set [4], the cytotoxic concentration (CC50) at 96 h was greater than 50 µM. In data set [5], this molecule displayed a concentration for a half-maximal effect (EC50) greater than 100 µM.
In the case of `C#C[C@]1(O)[C@H](n2ccc(=O)[nH]c2=O)O[C@](F)(CO[P@@](=O)(N[C@@H](C)C(=O)OC(C)C)Oc2ccccc2)[C@H]1O`, the 50% cytotoxic concentration (CC50) in [6] and in [8] was greater than 50 µM in each case. The molecule also had an EC50 in data set [7] of 0.57 µM. Further, the CC50 at 96 h in data set [4] is greater than 50 µM. Moreover, in data set [9], the 50% cytotoxic concentration (CC50) at 120 h was greater than 200 µM.
Take `CC#C[C@@]1(O)[C@H](O)[C@@H](CO[P@@](=O)(N[C@@H](C)C(=O)OC(C)C)Oc2ccccc2)O[C@H]1n1ccc(=O)[nH]c1=O`: in data set [7], the EC50 was 1.9 µM. In data set [4], this molecule showed a CC50 at 96 h greater than 50 µM.
In the case of `C#C[C@@]1(O)[C@H](O)[C@@H](COP(=O)(O)OP(=O)(O)OP(=O)(O)O)O[C@H]1n1ccc(=O)[nH]c1=O`, the activity at 5 min, 500 µM in data set [1] turned out to be 16.8%. For the same molecule, it took 1.6 µM to reach half-maximal inhibition in [3] (IC50).
The matching figures for `CC#C[C@]1(O)[C@H](n2ccc(=O)[nH]c2=O)O[C@](F)(COP(=O)(O)OP(=O)(O)OP(=O)(O)O)[C@H]1O`: 1.7% and 2.8 µM.
The matching figures for `CC#C[C@@]1(O)[C@H](O)[C@@H](COP(=O)(O)OP(=O)(O)OP(=O)(O)O)O[C@H]1n1ccc(=O)[nH]c1=O`: 6.7% and 2 µM.
The like results for `C#C[C@@]1(F)[C@H](O)[C@@H](COP(=O)(O)OP(=O)(O)OP(=O)(O)O)O[C@H]1n1ccc(=O)[nH]c1=O` were, in that order, 2% and 15.9 µM.
As for `C#C[C@@]1(F)[C@H](O)[C@@H](CO[P@@](=O)(N[C@@H](C)C(=O)OC(C)C)Oc2ccccc2)O[C@H]1n1ccc(=O)[nH]c1=O`, in data set [7], the EC50 is greater than 25 µM. Moreover, the CC50 at 96 h in data set [4] was greater than 50 µM.
The like results for `CC#C[C@]1(O)[C@H](n2ccc(=O)[nH]c2=O)O[C@](F)(CO[P@@](=O)(N[C@@H](C)C(=O)OC(C)C)Oc2ccccc2)[C@H]1O` were, in that order, 9 µM and greater than 50 µM.
The like results for `C#C[C@@]1(O)[C@H](O)[C@@H](CO[P@@](=O)(N[C@@H](C)C(=O)OC(C)C)Oc2ccccc2)O[C@H]1n1ccc(=O)[nH]c1=O` were, in that order, 0.45 µM and greater than 50 µM.
As for `CC#C[C@@]1(F)[C@H](O)[C@@H](COP(=O)(O)OP(=O)(O)OP(=O)(O)O)O[C@H]1n1ccc(=O)[nH]c1=O`, in data set [1], the activity at 5 min, 500 µM is 2.2%. Further, the IC50 in data set [3] is greater than 20 µM.
The like results for `C[C@@]1(O)[C@H](O)[C@@H](COP(=O)(O)OP(=O)(O)OP(=O)(O)O)O[C@H]1n1ccc(=O)[nH]c1=O` were, in that order, 29.4% and 5 µM.
For the molecule `CC(C)OC(=O)[C@H](C)NP(=O)(OC[C@H]1O[C@@H](n2ccc(=O)[nH]c2=O)[C@](C)(O)[C@@H]1O)Oc1ccccc1` (mixture of isomers), a half-maximal response in data set [7] (EC50) required 0.19 µM. This molecule also showed a CC50 at 96 h in data set [4] greater than 50 µM.
On to `[N-]=[N+]=N[C@]1(CO)O[C@@H](n2ccc(N)nc2=O)[C@H](O)[C@@H]1O` [4'-AZIDOCYTIDINE], for which the EC50 in data set [10] was 0.25 µM. For the same molecule, in data set [11], the Activity amounted to 91%.
For the molecule `C[C@]1(O)[C@H](n2ccc(=O)[nH]c2=O)O[C@](F)(COP(=O)(O)OP(=O)(O)OP(=O)(O)O)[C@H]1O` [ADAFOSBUVIR 5'-TRIPHOSPHATE], the activity at 5 min, 500 µM in data set [1] is 5.7%. Besides, inhibition in data set [3] was half-maximal at 6.6 µM (IC50).
In turn, `CC(C)OC(=O)[C@H](C)N[P@](=O)(OC[C@@]1(F)O[C@@H](n2ccc(=O)[nH]c2=O)[C@](C)(O)[C@@H]1O)Oc1ccccc1` [ADAFOSBUVIR] returned a concentration giving a half-maximal response (EC50) in [7] of 1.1 µM. Moreover, in data set [4], the 50% cytotoxic concentration (CC50) at 96 h is greater than 50 µM.
For the molecule `C[C@@]1(F)[C@H](O)[C@@H](COP(=O)(O)OP(=O)(O)OP(=O)(O)O)O[C@H]1n1ccc(=O)[nH]c1=O` [GS-461203], in data set [1], the activity at 5 min, 500 µM was 1.8%. The molecule further had a concentration for half-maximal inhibition (IC50) in data set [3] of 18 µM.
Regarding `CC(C)OC(=O)[C@H](C)N[P@](=O)(OC[C@H]1O[C@@H](n2ccc(=O)[nH]c2=O)[C@](C)(F)[C@@H]1O)Oc1ccccc1` [SOFOSBUVIR], a half-maximal response in data set [7] (EC50) required 1.2 µM. For the same molecule, in data set [4], the CC50 at 96 h is greater than 50 µM.

The IC50 is the concentration that gives 50% inhibition. Usually CC50 stands for the concentration at which the toxic effect on the cells reaches its halfway point. The EC50 is the concentration giving half of the maximal effect.
